In brackets after ≈: the same amount, converted by molar mass. Each block holds one compound with its values, some of them ahead of it.
Assays:
Experiment in all cases: ≥ marks a high value that may be exact or a test limit, other limits are often not marked, values filed in µg/mL are converted to µM
[1] = test system: Klebsiella aerogenes ATCC 13048
[2] = test system: Klebsiella pneumoniae ATCC 700603
[3] = test system: Lacticaseibacillus casei ATCC 334
[4] = test system: Listeria monocytogenes ATCC 7611
[5] = test system: Micrococcus luteus ATCC 14452
[6] = test system: Saccharomyces cerevisiae ATCC 204508
[7] = test system: Staphylococcus aureus ATCC 29213
Escherichia coli 078 = test system: Escherichia coli 078
[8] = test system: Escherichia coli ATCC 25922
Escherichia coli UB1005 = test system: Escherichia coli UB1005
[9] = test system: Lacticaseibacillus rhamnosus 7469
[10] = test system: Pseudomonas aeruginosa ATCC 27853
[11] = test system: Salmonella enterica subsp. enterica serovar Pullorum ATCC 7913
[12] = test system: Salmonella enterica subsp. enterica serovar Typhimurium ATCC 14028
[13] = test system: Salmonella enterica subsp. enterica serovar Typhimurium C77-31
[14] = test system: Staphylococcus aureus ATCC 25923
[15] = test system: Staphylococcus epidermidis ATCC 12228
[16] = test system: Streptococcus agalactiae CICC 10465
Streptococcus agalactiae = test system: Streptococcus agalactiae
[17] = test system: Streptococcus thermophilus YM-C
[18] = test system: Acinetobacter baumannii ATCC 19606
[19] = test system: Candida albicans ATCC 90028
[20] = test system: Cryptococcus neoformans ATCC 208821
[21] = test system: Staphylococcus aureus ATCC 43300
[22] = test system: Staphylococcus aureus SH1000
Escherichia coli TOP 10 = test system: Escherichia coli TOP 10
[23] = test system: Candida albicans ATCC 14053
[24] = test system: Candida glabrata ATCC 2001
Candida krusei ATCC 6258 = test system: Candida krusei ATCC 6258
[25] = test system: Candida parapsilosis ATCC 22019
Escherichia coli = test system: Escherichia coli
[26] = test system: Staphylococcus aureus ATCC BAA-1683
[27] = test system: Salmonella enterica subsp. enterica serovar Enteritidis
Salmonella sp. = test system: Salmonella sp.
Yersinia enterocolitica = test system: Yersinia enterocolitica
[28] = test system: Candida albicans FRR 5580
[29] = test system: Pseudomonas aeruginosa ATCC 9027
[30] = test system: Bifidobacterium longum subsp. infantis
Staphylococcus aureus = test system: Staphylococcus aureus

Compound: CC[C@H](C)[C@H](NC(=O)[C@H](CC(=O)O)NC(=O)[C@H](Cc1ccccc1)NC(=O)[C@H](CC(C)C)NC(=O)CN)C(=O)N[C@H](C(=O)N[C@@H](CCCCN)C(=O)N[C@@H](CCCCN)C(=O)N[C@H](C(=O)N[C@H](C(=O)N[C@@H](CCCCN)C(=O)N[C@@H](CC(C)C)C(=O)N[C@@H](CC(C)C)C(=O)N[C@@H](CCCCN)C(N)=O)C(C)C)C(C)C)C(C)C [GLFDIVKKVVKLLK]
MIC [18]: > 20 µM
MIC [19]: 20 µM (≈ 32 µg/mL)
MIC [20]: 20 µM (≈ 32 µg/mL)
MIC [8]: > 20 µM
MIC [2]: > 20 µM
MIC [10]: > 20 µM
MIC [21]: > 20 µM
MIC [22]: ≥ 50 µM

Compound: CC[C@H](C)[C@H](NC(=O)[C@H](CCCCN)NC(=O)[C@H](CO)NC(=O)[C@H](Cc1ccccc1)NC(=O)[C@H](CC(C)C)NC(=O)[C@H](CCCCN)NC(=O)[C@H](CCCCN)NC(=O)[C@H](CC(C)C)NC(=O)CN)C(=O)N[C@@H](CCCCN)C(=O)N[C@H](C(=O)N[C@H](C(=O)NCC(=O)N[C@@H](CO)C(=O)N[C@@H](C)C(=O)N[C@@H](CC(C)C)C(=O)N[C@@H](CCCCN)C(=O)N[C@@H](CC(N)=O)C(=O)N[C@@H](CC(C)C)C(=O)N[C@@H](C)C(N)=O)[C@@H](C)CC)[C@@H](C)CC [GLKKLFSKIKIIGSALKNLA]
MIC (Escherichia coli TOP 10): 1.45 µM (≈ 3.1 µg/mL)

Compound: CC[C@H](C)[C@H](N)C(=O)N[C@@H](CC(=O)O)C(=O)N[C@@H](Cc1c[nH]c2ccccc12)C(=O)N[C@@H](Cc1cnc[nH]1)C(=O)N[C@@H](Cc1cnc[nH]1)C(=O)N[C@@H](CC(C)C)C(=O)N[C@@H](CC(C)C)C(=O)N[C@@H](CC(=O)O)C(=O)N[C@@H](C)C(=O)N[C@@H](C)C(=O)N[C@@H](Cc1cnc[nH]1)C(=O)N[C@@H](CCC(N)=O)C(=O)N[C@H](C(=O)N[C@@H](CC(C)C)C(N)=O)[C@@H](C)CC [IDWHHLLDAAHQIL]
MIC [23]: ≥ 64 µM
MIC [24]: 16 µM (≈ 26.9 µg/mL)
MIC (Candida krusei ATCC 6258): ≥ 32 µM
MIC [25]: ≥ 64 µM

Compound: NCCCC[C@H](NC(=O)[C@H](Cc1c[nH]c2ccccc12)NC(=O)[C@H](Cc1c[nH]c2ccccc12)NC(=O)[C@H](CCCCN)NC(=O)[C@H](Cc1c[nH]c2ccccc12)NC(=O)[C@H](Cc1c[nH]c2ccccc12)NC(=O)[C@@H](N)CCCN=C(N)N)C(N)=O [RWWKWWK]
MIC [28]: ≥ 54.5 µM
MIC [29]: 27.2 µM (≈ 32 µg/mL)

Compound: CC[C@H](C)[C@H](NC(=O)[C@H](CCC(N)=O)NC(=O)[C@H](C)NC(=O)[C@H](Cc1cnc[nH]1)NC(=O)[C@@H]1CCCN1C(=O)[C@H](CCCN=C(N)N)NC(=O)[C@@H](NC(=O)[C@@H](NC(=O)[C@H](C)NC(=O)[C@@H]1CCCN1C(=O)[C@H](CC(N)=O)NC(=O)[C@H](C)NC(=O)[C@@H](N)Cc1ccc(O)cc1)C(C)C)C(C)C)C(=O)N1CCC[C@H]1C(=O)N[C@@H](CCC(N)=O)C(=O)N[C@@H](CCCN=C(N)N)C(=O)O [YANPAVVRPHAQIPQR]
MIC [30]: ≥ 1650 µM
MIC (Escherichia coli): > 1650 µM
MIC (Staphylococcus aureus): > 1650 µM

The next lines start with the values.

MIC [1]: ≥ 256 µM
MIC [2]: > 256 µM
MIC [3]: ≥ 256 µM
MIC [4]: 8 µM (≈ 15 µg/mL)
MIC [5]: 7.5 µM (≈ 14.1 µg/mL)
MIC [6]: ≥ 32 µM
MIC [7]: 3.5 µM (≈ 6.56 µg/mL)
Compound: CC[C@H](C)[C@H](NC(=O)[C@H](CC(C)C)NC(=O)[C@H](C)NC(=O)[C@H](Cc1ccccc1)NC(=O)[C@H](C)N)C(=O)N[C@@H](C)C(=O)NCC(=O)N[C@@H](C)C(=O)N[C@@H](CC(C)C)C(=O)N[C@@H](Cc1ccc(O)cc1)C(=O)N[C@@H](CCCN=C(N)N)C(=O)N[C@H](C(=O)N[C@@H](Cc1ccccc1)C(=O)N[C@@H](Cc1cnc[nH]1)C(=O)N[C@@H](CCCN=C(N)N)C(=O)N[C@@H](CCCN=C(N)N)C(=O)O)[C@@H](C)CC [AFALIAGALYRIFHRR]

MIC (Escherichia coli 078): ≥ 64 µM
MIC [8]: > 64 µM
MIC (Escherichia coli UB1005): ≥ 64 µM
MIC [9]: ≥ 64 µM
MIC [10]: > 64 µM
MIC [11]: ≥ 64 µM
MIC [12]: > 64 µM
MIC [13]: ≥ 64 µM
MIC [14]: > 64 µM
MIC [7]: > 64 µM
MIC [15]: > 64 µM
MIC [16]: 4 µM (≈ 7.75 µg/mL)
MIC (Streptococcus agalactiae): 4 µM (≈ 7.75 µg/mL)
MIC [17]: ≥ 64 µM
Compound: CC[C@H](C)[C@H](NC(=O)[C@H](CC(C)C)NC(=O)[C@@H](NC(=O)[C@@H](N)CC(=O)O)[C@@H](C)CC)C(=O)N[C@H](C(=O)N[C@H](C(=O)NCC(=O)NCC(=O)N[C@@H](CCCCN)C(=O)N[C@@H](CCC(=O)O)C(=O)N[C@@H](CCCN=C(N)N)C(=O)N[C@@H](CCCCN)C(=O)N[C@@H](CCCCN)C(=O)N[C@@H](CCCN=C(N)N)C(=O)N[C@@H](CCCN=C(N)N)C(=O)N[C@@H](CCCN=C(N)N)C(N)=O)C(C)C)[C@@H](C)CC [DILIIVGGKERKKRRR]

MIC (Escherichia coli): 386 µM (≈ 500 µg/mL)
MIC [26]: ≥ 386 µM
Compound: CC(C)C[C@H](NC(=O)[C@H](CC(C)C)NC(=O)[C@H](CC(C)C)NC(=O)[C@H](CC(C)C)NC(=O)[C@H](CCCCN)NC(=O)[C@H](CCCCN)NC(=O)[C@H](CCCCN)NC(=O)[C@@H](N)CCCCN)C(=O)N[C@@H](CCCN=C(N)N)C(=O)N[C@@H](CCCN=C(N)N)C(N)=O [KKKKLLLLRR]

MIC [8]: > 40.4 µM
MIC (Escherichia coli): > 40.4 µM
MIC [27]: ≥ 40.4 µM
MIC (Salmonella sp.): ≥ 40.4 µM
MIC [7]: > 40.4 µM
MIC [21]: > 40.4 µM
MIC (Yersinia enterocolitica): ≥ 40.4 µM
Compound: CC[C@H](C)[C@H](NC(=O)[C@H](CCCN=C(N)N)NC(=O)[C@H](CCCN=C(N)N)NC(=O)[C@@H](NC(=O)[C@@H](NC(=O)[C@H](CCC(N)=O)NC(=O)[C@@H](N)CCCN=C(N)N)[C@@H](C)CC)[C@@H](C)CC)C(=O)N[C@@H](CCC(N)=O)C(=O)N[C@@H](CCCN=C(N)N)C(N)=O [RQIIRRIQR]

From DBAASP
